# Measured values: patent publication US11149018B2, “Substituted N-arylethyl-2-aminoquinoline-4-carboxamides and use thereof” (Bayer Aktiengesellschaft, priority 2017, dated 2021)
# Molecular target: FP receptor (Homo sapiens (Human), UniProt P43088)
# Experiment: In vitro test of inhibition of human FP receptor activity (PGF2α-induced calcium flux in FP-expressing CHEM1 cells)
# Assay type: cell-based
# Details: PGF2α 2 nM, some mean values of multiple determinations
# Outline: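 FP antagonism in FP-expressing CHEM1 cells loaded with Fluo-8. Compound preincubated 10 min at 37° C, then receptor stimulated with 2 nM (final) PGF2α in calcium-free Tyrode with 2 mM CaCl2.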
# FP receptor, sequence (P43088 whole entry): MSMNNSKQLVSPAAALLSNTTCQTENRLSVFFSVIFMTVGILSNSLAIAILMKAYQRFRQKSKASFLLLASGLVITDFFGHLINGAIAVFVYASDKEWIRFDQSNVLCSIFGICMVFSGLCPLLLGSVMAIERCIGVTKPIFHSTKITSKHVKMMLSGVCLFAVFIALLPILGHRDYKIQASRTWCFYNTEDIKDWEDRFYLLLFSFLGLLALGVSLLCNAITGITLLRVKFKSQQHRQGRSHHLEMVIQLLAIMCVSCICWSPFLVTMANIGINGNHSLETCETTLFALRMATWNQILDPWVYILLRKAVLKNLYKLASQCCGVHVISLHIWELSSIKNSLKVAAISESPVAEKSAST
row,SMILES,IC50
1,"Cc1c(N2CC[C@@H](F)C2)nc2ccc(Br)cc2c1C(=O)NCC(CCC(=O)O)c1ccccc1Cl (stereo partly drawn) [Example 66, 5-[({6-Bromo-2-[(3R)-3-fluoropyrrolidin-1-yl]-3-methylquinolin-4-yl}carbonyl)amino]-4-(2-chlorophenyl)pentanoic acid]",12 nM
2,"Cc1c(N2CCCCC2)nc2ccc(Br)cc2c1C(=O)NCC(CC(=O)O)c1c(F)cccc1Cl (single isomer, unassigned; (+)) [Example 3, (+)-4-({[6-Bromo-3-methyl-2-(piperidin-1-yl)quinolin-4-yl]carbonyl}amino)-3-(2-chloro-6-fluorophenyl)butanoic acid]",92 nM
3,"Cc1c(N2CCCC(F)(F)C2)nc2ccc(Br)cc2c1C(=O)NCC(CCC(=O)O)c1c(F)cccc1F (racemic) [Example 250, (+/−)-5-({[6-Bromo-2-(3,3-difluoropiperidin-1-yl)-3-methylquinolin-4-yl]carbonyl}amino)-4-(2,6-difluorophenyl)pentanoic acid]",20 nM
4,"Cc1c(N2CCCC2)nc2ccc(Br)cc2c1C(=O)NCC(CCC(=O)O)c1c(F)ccc(F)c1Cl (single isomer, unassigned; (+)) [Example 215, (+)-5-({[6-Bromo-3-methyl-2-(pyrrolidin-1-yl)quinolin-4-yl]carbonyl}amino)-4-(2-chloro-3,6-difluorophenyl)pentanoic acid]",3.9 nM
5,"Cc1c(N2CCCO2)nc2ccc(Br)cc2c1C(=O)NCC(CCC(=O)O)c1ccccc1Cl (racemic) [Example 38, (+/−)-5-({[6-Bromo-3-methyl-2-(1,2-oxazolidin-2-yl)quinolin-4-yl]carbonyl}amino)-4-(2-chlorophenyl)pentanoic acid]",110 nM
6,"Cc1c(N2CCCC(F)C2)nc2ccc(Br)cc2c1C(=O)NCC(CCC(=O)O)c1ccccc1Cl (single isomer, unassigned; (+)) [Example 188, (+)-5-[({6-Bromo-2-[3-fluoropiperidin-1-yl]-3-methylquinolin-4-yl}carbonyl)amino]-4-(2-chlorophenyl)pentanoic acid]",6.1 nM
7,"CCC1CCCN(c2nc3ccc(Br)cc3c(C(=O)NCC(CCC(=O)O)c3c(F)ccc(F)c3Cl)c2C)C1 (centres unmarked) [Example 158, 5-[({6-Bromo-2-[3-ethylpiperidin-1-yl]-3-methylquinolin-4-yl}carbonyl)amino]-4-(2-chloro-3,6-difluorophenyl)pentanoic acid]",1.6 nM
8,"Cc1ccccc1C(CCC(=O)O)CNC(=O)c1c(C)c(N2CCCC(F)(F)C2)nc2ccc(Br)cc12 (racemic) [Example 229, (+/−)-5-({[6-Bromo-2-(3,3-difluoropiperidin-1-yl)-3-methylquinolin-4-yl]carbonyl}amino)-4-(2-methylphenyl)pentanoic acid]",13 nM
9,"Cc1c(N2CCCC(F)(F)C2)nc2ccc(Br)cc2c1C(=O)NCC(CCC(=O)O)c1c(Cl)ccc(Cl)c1Cl (single isomer, unassigned; (-)) [Example 179, (−)-5-({[6-Bromo-2-(3,3-difluoropiperidin-1-yl)-3-methylquinolin-4-yl]carbonyl}amino)-4-(2,3,6-trichlorophenyl)pentanoic acid]",2.3 nM
10,"Cc1c(N2CCCO2)nc2ccc(Br)cc2c1C(=O)NCC(CCC(=O)O)c1ccccc1Cl (single isomer, unassigned; (-)) [Example 39, (−)-5-({[6-Bromo-3-methyl-2-(1,2-oxazolidin-2-yl)quinolin-4-yl]carbonyl}amino)-4-(2-chlorophenyl)pentanoic acid]",24 nM
11,"Cc1c(N2CC3CC(C3)C2)nc2ccc(Br)cc2c1C(=O)NCC(CCC(=O)O)c1ccccc1Cl (racemic) [Example 73, (+/−)-5-[({2-[3-Azabicyclo[3.1.1]hept-3-yl]-6-bromo-3-methylquinolin-4-yl}carbonyl)amino]-4-(2-chlorophenyl)pentanoic acid]",48 nM
12,"[2H]C1([2H])N(c2nc3ccc(Br)cc3c(C(=O)NCC(CCC(=O)O)c3ccccc3OC(F)(F)F)c2C)C([2H])([2H])C([2H])([2H])C1([2H])[2H] (single isomer, unassigned; (+)) [Example 279, (+)-5-[({6-Bromo-3-methyl-2-[(^2H8)pyrrolidin-1-yl]quinolin-4-yl}carbonyl)amino]-4-[2-(trifluoromethyl)phenyl]pentanoic acid]",11 nM
13,"COc1ccccc1C(CCC(=O)O)CNC(=O)c1c(C)c(N2CCCCC2)nc2ccc(Br)cc12 (single isomer, unassigned; (-)) [Example 236, (−)-5-({[6-Bromo-3-methyl-2-(piperidin-1-yl)quinolin-4-yl]carbonyl}amino)-4-(2-methoxyphenyl)pentanoic acid]",11 nM
14,"Cc1c(N2CC[C@H](F)C2)nc2ccc(Br)cc2c1C(=O)NCC(CCC(=O)O)c1ccccc1Cl (stereo partly drawn) [Example 65, 5-[({6-Bromo-2-[(3S)-3-fluoropyrrolidin-1-yl]-3-methylquinolin-4-yl}carbonyl)amino]-4-(2-chlorophenyl)pentanoic acid]",110 nM
15,"CCCCNc1nc2ccc(Br)cc2c(C(=O)NCC(CCC(=O)O)c2ccccc2Cl)c1C (racemic) [Example 101, (+/−)-5-({[6-Bromo-2-(butylamino)-3-methylquinolin-4-yl]carbonyl}amino)-4-(2-chlorophenyl)pentanoic acid]",450 nM
16,"Cc1c(NCCc2ccccc2)nc2ccc(Br)cc2c1C(=O)NCC(CCC(=O)O)c1ccccc1Cl (racemic) [Example 94, (+/−)-5-[({6-Bromo-3-methyl-2-[(2-phenylethyl)amino]quinolin-4-yl}carbonyl)amino]-4-(2-chlorophenyl)pentanoic acid]",15 nM
17,"Cc1c(N2CCCC(F)C2)nc2ccc(Br)cc2c1C(=O)NCC(CCC(=O)O)c1c(F)cccc1C(F)(F)F (centres unmarked) [Example 169, 5-[({6-Bromo-2-[3-fluoropiperidin-1-yl]-3-methylquinolin-4-yl}carbonyl)amino]-4-[2-fluoro-6-(trifluoromethyl)phenyl]pentanoic acid]",9.1 nM
18,"Cc1c(N2CCCC(F)C2)nc2ccc(Br)cc2c1C(=O)NCC(CCC(=O)O)c1c(Cl)ccc(Cl)c1Cl (single isomer, unassigned) [Example 222, 5-[({6-Bromo-2-[3-fluoropiperidin-1-yl]-3-methylquinolin-4-yl}carbonyl)amino]-4-(2,3,6-trichlorophenyl)pentanoic acid]",3 nM
19,"CCC1CCCN(c2nc3ccc(Br)cc3c(C(=O)NCC(CCC(=O)O)c3c(F)cccc3C(F)(F)F)c2C)C1 (centres unmarked) [Example 170, 5-[({6-Bromo-2-[3-ethylpiperidin-1-yl]-3-methylquinolin-4-yl}carbonyl)amino]-4-[2-fluoro-6-(trifluoromethyl)phenyl]pentanoic acid]",2.7 nM
20,"Cc1c(N2CCCC2)nc2ccc(Br)cc2c1C(=O)NCC(CCC(=O)O)c1c(F)cccc1F (racemic) [Example 247, (+/−)-5-({[6-Bromo-3-methyl-2-(pyrrolidin-1-yl)quinolin-4-yl]carbonyl}amino)-4-(2,6-difluorophenyl)pentanoic acid hydrogenformate]",55 nM
21,"Cc1c(N2CCCO2)nc2ccc(Br)cc2c1C(=O)NCC(CCC(=O)O)c1ccccc1Cl (single isomer, unassigned; (+)) [Example 40, (+)-5-({[6-Bromo-3-methyl-2-(1,2-oxazolidin-2-yl)quinolin-4-yl]carbonyl}amino)-4-(2-chlorophenyl)pentanoic acid]",62 nM
22,"Cc1c(N2CCCC(F)C2)nc2ccc(Br)cc2c1C(=O)NCC(CCC(=O)O)c1c(F)cccc1F (centres unmarked) [Example 253, 5-[({6-Bromo-2-(3-fluoropiperidin-1-yl)-3-methylquinolin-4-yl}carbonyl)amino]-4-(2,6-difluorophenyl)pentanoic acid]",25 nM
23,"Cc1ccccc1C(CCC(=O)O)CNC(=O)c1c(C)c(N2CCCC(F)(F)C2)nc2ccc(Br)cc12 (single isomer, unassigned; (+)) [Example 231, (+)-5-({[6-Bromo-2-(3,3-difluoropiperidin-1-yl)-3-methylquinolin-4-yl]carbonyl}amino)-4-(2-methylphenyl)pentanoic acid]",39 nM
24,"Cc1c(NCCc2ccccc2)nc2ccc(Br)cc2c1C(=O)NCC(CC(=O)O)c1c(F)cccc1Cl (racemic) [Example 4, (+/−)-4-[({6-Bromo-3-methyl-2-[(2-phenylethyl)amino]quinolin-4-yl}carbonyl)amino]-3-(2-chloro-6-fluorophenyl)butanoic acid]",170 nM
25,"Cc1c(N2CCCCCC2)nc2ccc(Br)cc2c1C(=O)NCC(CCC(=O)O)c1ccccc1C(F)(F)F (single isomer, unassigned; (+)) [Example 122, (+)-5-({[2-(Azepan-1-yl)-6-bromo-3-methylquinolin-4-yl]carbonyl}amino)-4-[2-(trifluoromethyl)phenyl]pentanoic acid]",6.7 nM
26,"COC1CCN(c2nc3ccc(Br)cc3c(C(=O)NCC(CCC(=O)O)c3ccccc3Cl)c2C)C1 (centres unmarked) [Example 41, 5-[({6-Bromo-2-[3-methoxypyrrolidin-1-yl]-3-methylquinolin-4-yl}carbonyl)amino]-4-(2-chlorophenyl)pentanoic acid]",430 nM
27,"Cc1c(N2CCCC(F)C2)nc2ccc(Br)cc2c1C(=O)NCC(CCC(=O)O)c1c(Cl)ccc(Cl)c1Cl (single isomer, unassigned) [Example 223, 5-[({6-Bromo-2-[3-fluoropiperidin-1-yl]-3-methylquinolin-4-yl}carbonyl)amino]-4-(2,3,6-trichlorophenyl)pentanoic acid]",140 nM
28,"Cc1c(N2CCCC(N)C2)nc2ccc(Br)cc2c1C(=O)NCC(CCC(=O)O)c1ccccc1Cl (centres unmarked) [Example 56, 5-[({2-[3-Aminopiperidin-1-yl]-6-bromo-3-methylquinolin-4-yl}carbonyl)amino]-4-(2-chlorophenyl)pentanoic acid]",330 nM
29,"Cc1c(N2CCCC(F)C2)nc2ccc(Br)cc2c1C(=O)NCC(CCC(=O)O)c1ccccc1OC(F)(F)F (single isomer, unassigned; (-)) [Example 201, (−)-5-[({6-Bromo-2-[3-fluoropiperidin-1-yl]-3-methylquinolin-4-yl}carbonyl)amino]-4-[2-(trifluoromethoxy)phenyl]pentanoic acid]",2.7 nM
